Measurements from US20090176817A1, “Method of Treatment of Diarrhea-Predominant Irritable Bowel Syndrome in a Subject” (priority 2005, published 2009).

How the values were obtained:
[1] = tested on: healthy, elderly subjects; assay: Study K.241.5013: colonic transit time, elderly, 4 mg TID; assay type: in vivo, human; conditions: 4 mg TID oral 14 days, mean (SD)
From the text: The effect of cilansetron on gastric emptying time and colonic transit time has been studied in 1 clinical study in healthy young subjects and 2 studies in elderly subjects. For measurement of gastric emptying time, breath samples for the determination of the ^12C/^13C ratio were taken on the last day of each treatment period immediately after ingestion of a ^13C labeled meal. The patients' breath was collected in separate 15-minute intervals, for four hours in total. ^13CO2 measurements were performed with an isotope ratio mass spectrometer. The half-life (TK) and lag-time (Tlag), which describe the duration of gastric emptying, were used as the primary parameters to evaluate gastric emptying time. In all 3 studies, colonic transit time was measured by administration of radio-opaque markers for the last six days of each treatment period, followed by a single abdominal X-ray image at 24 hours after ingestion of the last set of markers. The numbers of markers within the colon were used to calculate segmental (right colon, left colon, and rectosigmoid) and total colonic transit time.
Studies K.241.5013 and K.241.5014 were randomized, double-blind, placebo-controlled, 2-way crossover studies in 8 healthy male and female elderly subjects, each (ITT population, aged 64-83 years in K.241.5013 and 66-84 years in K.241.5014). Elderly subjects were selected for these studies because they commonly suffer from constipation and it was of interest whether cilansetron would prolong gastrointestinal transit times in this population. Subjects received cilansetron 4 mg or placebo in Study K.241.5013 and cilansetron 8 mg or placebo in Study K.241.5014. Treatments were administered orally TID for 14 days during each period, with a 14-day washout between periods. The primary efficacy parameter was the total mean colonic transit time during each treatment and the secondary parameters were the segmental colonic transit times and the gastric emptying measurements. One-sided t-tests were used to compare efficacy parameters between the cilansetron and placebo treatments.

clinical = assay type: in vitro ADME; conditions: male, human, plasma; 8 mg oral/IV, 30, 45, 120 minutes; read-out: Fraction bound
Protocol: Plasma protein binding was also measured in blood samples collected at 30, 45, and 120 minutes after dosing in a single-dose, crossover study in which cilansetron 8 mg was administered orally (solution and capsule) and intravenously to 18 male subjects. In samples where total and/or free concentrations were measurable, fraction bound was about 96-98%.

[2] = both, human, in vivo, 32 mg
Protocol: Two randomized, double-blind, placebo controlled, balanced incomplete block design, crossover studies evaluated the single- and multiple-dose pharmacokinetics of oral cilansetron over a 8 mg to 32 mg dose range. In both studies, subjects were randomized to receive two of three treatments during 2 treatment periods. In one study (12 male and 13 female subjects, aged 23 to 36 years), subjects received 8 mg cilansetron, 16 mg cilansetron, or placebo, while in another study (12 males and 13 females, aged 23 to 41 years), subjects received 16 mg cilansetron, 32 mg cilansetron, or placebo. During each treatment period, subjects received a single dose of their assigned treatment on the first day, followed by a 3-day washout, after which they received the same treatment TID for 5 days.
There was a 5-6 day washout period between treatment periods. Doses on the mornings of pharmacokinetic days were administered under fasted conditions. Serial blood sampling and urine collection was performed up to 12 hours following morning dosing on the first day (single dose) and on the last multiple dosing day of each treatment period, and cilansetron pharmacokinetic parameters were evaluated.
In two randomized, double-blind, placebo controlled, balanced incomplete block design, crossover studies evaluating the single- and multiple-dose pharmacokinetics of oral cilansetron over a 8 mg to 32 mg dose range, subjects were randomized to receive two of three treatments during 2 treatment periods. In Study S.241.1.101; (12 male and 13 female subjects, aged 23 to 36 years), subjects received 8 mg cilansetron, 16 mg cilansetron, or placebo, while in Study S.24 1.1.102; (12 males and 13 females, aged 23 to 41 years), subjects received 16 mg cilansetron, 32 mg cilansetron, or placebo. During each treatment period, subjects received a single dose of their assigned treatment on the first day, followed by a 3-day washout, after which they received the same treatment TID for 5 days. There was a 5-6 day washout period between treatment periods. Doses on the mornings of pharmacokinetic days were administered under fasted conditions. Serial blood sampling and urine collection was performed up to 12 hours following morning dosing on the first day (single dose) and on the last multiple dosing day of each treatment period, and cilansetron pharmacokinetic parameters were evaluated.

[3] = human, in vivo
Protocol: Subjects were randomized to receive a cilansetron 8 mg capsule after an overnight fast and a cilansetron 8 mg capsule after a high-fat breakfast during the two treatment periods, with a 3-day washout between periods. Serial blood sampling and urine collection was performed up to 24 hours following each dose, and cilansetron pharmacokinetic parameters were evaluated.

healthy subjects = assay: Study K.241.5007: rectal visceral perception; assay type: in vivo, human; conditions: mean; for Pressure first producing abdominal pain, Differences from Placebo / Pressure first producing feeling of abdominal sensation, Differences from Placebo / Pressure first producing feeling of need to defecate, Differences from Placebo / Volume first producing abdominal pain, Differences from Placebo / Volume first producing feeling of abdominal sensation, Differences from Placebo / Volume first producing feeling of need to defecate, Differences from Placebo: not significant; for Pressure first producing abdominal pain / Pressure first producing feeling of abdominal sensation / Pressure first producing feeling of need to defecate / Volume first producing abdominal pain / Volume first producing feeling of abdominal sensation / Volume first producing feeling of need to defecate: rectal distension, absolute value
Protocol: The effect of cilansetron on rectal visceral perception was evaluated in a randomized, doubleblind, placebo-controlled, 4-way crossover study in 12 male healthy subjects (ITT population), aged 18-26 years. Subjects received single IV doses of placebo or cilansetron 4 mg, 8 mg, or 16 mg as 30-minute infusions during each of the periods, with a 14-day washout between periods. Rectal distension tests were done during each treatment, immediately following the completion of each infusion. An electronic barostat was used to produce isobarometric distensions (successive 4 mmHg increases every 5 minutes, up to a sensation of abdominal pain or a maximum of 44 mmHg). The primary efficacy parameter was the distension pressure required to induce a sensation of abdominal pain. Secondary parameters were the distension pressure at the first feeling of abdominal/rectal sensation and the first feeling of need to defecate, and the response rate (defined as the number of subjects who experienced no abdominal pain at the maximum pressure of 44 mmHg). The pain threshold for each of the three cilansetron doses was compared to placebo using a one-sided Dunnett t-test.

Compound: Cc1nccn1C[C@H]1CCc2c(c3cccc4c3n2CCC4)C1=O [Cilansetron, (R)-(−)-4,5,6,8,9,10-hexahydro-10-[(2-methyl-1H-imidazol-1-yl)methyl]-11H-pyrido-[3,2,1-jk]-carbazol-11-one]
- Transit Times, Colon Total [1]: 55.5 (41.3) hours
- Transit Times, Colonic Segments Left [1]: 21.9 (16.0) hours
- Transit Times, Colonic Segments Rectosigmoid [1]: 6.3 (8.3) hours
- Transit Times, Colonic Segments Right [1]: 27.3 (29.2) hours
- fraction unbound (clinical): 0.02 to 0.04
- DN-AUC [2]: 14.1 (61) ng · h/mL
- CL/F ([3]; 8 mg): 2698 (77) mL/min
- % Dose (urine) ([3]; male): 0.21 (91) %
- AUC (0-last) ratio fed/fasted ([3]; male): 108%
- AUC(0-inf) ratio fed/fasted ([3]; male): 104%
- Cmax ratio fed/fasted ([3]; male): 79%
- AUC(0-inf) ([3]; male, 8 mg): 77.6 (66) ng · h/mL
- AUC(0-last) ([3]; male, 8 mg): 72.8 (72) ng · h/mL
- CLr ([3]; male, 8 mg): 3.86 (90) mL/min
- Cmax ([3]; male, 8 mg): 31.7 (58) ng/mL
- Cmax decrease with high-fat meal ([3]; male, 8 mg): 21%
- Tmax ([3]; male, 8 mg): 1.00 (0.50, 2.00) h
- T½ ([3]; male, 8 mg): 1.43 (40) h
- Vz/F ([3]; male, 8 mg): 309 (76) L
- Pressure first producing abdominal pain, Differences from Placebo (healthy subjects; 4 mg single IV dose): 0.67 mmHg
- Pressure first producing feeling of abdominal sensation, Differences from Placebo (healthy subjects; 4 mg single IV dose): −1.00 mmHg
- Pressure first producing feeling of need to defecate, Differences from Placebo (healthy subjects; 4 mg single IV dose): −0.67 mmHg
- Volume first producing abdominal pain, Differences from Placebo (healthy subjects; 4 mg single IV dose): 12.7 mL
- Volume first producing feeling of abdominal sensation, Differences from Placebo (healthy subjects; 4 mg single IV dose): -20.0 mL
- Volume first producing feeling of need to defecate, Differences from Placebo (healthy subjects; 4 mg single IV dose): -8.75 mL
- Pressure first producing abdominal pain (healthy subjects; 4 mg single IV dose): 31.0 mmHg
- Pressure first producing feeling of abdominal sensation (healthy subjects; 4 mg single IV dose): 12.7 mmHg
- Pressure first producing feeling of need to defecate (healthy subjects; 4 mg single IV dose): 20.3 mmHg
- Volume first producing abdominal pain (healthy subjects; 4 mg single IV dose): 310 mL
- Volume first producing feeling of abdominal sensation (healthy subjects; 4 mg single IV dose): 132 mL
- Volume first producing feeling of need to defecate (healthy subjects; 4 mg single IV dose): 233 mL
- Pressure first producing abdominal pain, Differences from Placebo (healthy subjects; 8 mg single IV dose): 2.00 mmHg
- Pressure first producing feeling of abdominal sensation, Differences from Placebo (healthy subjects; 8 mg single IV dose): −1.67 mmHg
- Pressure first producing feeling of need to defecate, Differences from Placebo (healthy subjects; 8 mg single IV dose): −0.67 mmHg
- Volume first producing abdominal pain, Differences from Placebo (healthy subjects; 8 mg single IV dose): -0.83 mL
- Volume first producing feeling of abdominal sensation, Differences from Placebo (healthy subjects; 8 mg single IV dose): -19.2 mL
- Volume first producing feeling of need to defecate, Differences from Placebo (healthy subjects; 8 mg single IV dose): -10.0 mL
- Pressure first producing abdominal pain (healthy subjects; 8 mg single IV dose): 32.3 mmHg
- Pressure first producing feeling of abdominal sensation (healthy subjects; 8 mg single IV dose): 12.0 mmHg
- Pressure first producing feeling of need to defecate (healthy subjects; 8 mg single IV dose): 20.3 mmHg
- Volume first producing abdominal pain (healthy subjects; 8 mg single IV dose): 297 mL
- Volume first producing feeling of abdominal sensation (healthy subjects; 8 mg single IV dose): 133 mL
- Volume first producing feeling of need to defecate (healthy subjects; 8 mg single IV dose): 232 mL
- Pressure first producing abdominal pain, Differences from Placebo (healthy subjects; 16 mg single IV dose): 1.33 mmHg
- Pressure first producing feeling of abdominal sensation, Differences from Placebo (healthy subjects; 16 mg single IV dose): −1.00 mmHg
- Pressure first producing feeling of need to defecate, Differences from Placebo (healthy subjects; 16 mg single IV dose): −1.00 mmHg
- Volume first producing abdominal pain, Differences from Placebo (healthy subjects; 16 mg single IV dose): 15.8 mL
- Volume first producing feeling of abdominal sensation, Differences from Placebo (healthy subjects; 16 mg single IV dose): -14.2 mL
- Volume first producing feeling of need to defecate, Differences from Placebo (healthy subjects; 16 mg single IV dose): -3.75 mL
- Pressure first producing abdominal pain (healthy subjects; 16 mg single IV dose): 31.7 mmHg
- Pressure first producing feeling of abdominal sensation (healthy subjects; 16 mg single IV dose): 12.7 mmHg
- Pressure first producing feeling of need to defecate (healthy subjects; 16 mg single IV dose): 20.0 mmHg
- Volume first producing abdominal pain (healthy subjects; 16 mg single IV dose): 313 mL
- Volume first producing feeling of abdominal sensation (healthy subjects; 16 mg single IV dose): 138 mL
- Volume first producing feeling of need to defecate (healthy subjects; 16 mg single IV dose): 238 mL
